Laboratory results as given in US20060019936A1 (priority 2004, published 2006).
“Also recorded” adds a separate entry of the source. Like-named read-outs stand apart in the source and are kept apart here.

What was measured:
LNCaP cells [1] = format: cell-based, human
PARP = format: cell-based, human
LNCaP cells [2] = assay: Cell cycle analysis by flow cytometry; format: cell-based, human
LNCaP cells [3] = format: cell-based, human; remark: listed apart in the source
p27 (Kip1) = format: cell-based, human
p21 (WAF1/Cip1) = format: cell-based, human
p45 Skp2 = format: cell-based, human
c-Myc = c-Myc protein levels in LNCaP cells; format: cell-based, human
p70S6K = assay: Phosphorylation status of p70S6K in LNCaP cells; format: cell-based, human
LNCaP cells [4] = assay: DNA fragmentation by agarose gel electrophoresis; format: cell-based, human; settings: 20 μM, 24 h exposure
Bid = Bid cleavage analysis; format: cell-based, human; settings: LNCaP cells
rabbit uterine ER = molecular target: T1, rabbit uterine ER (Oryctolagus cuniculus, UniProt G1SML6); assay: Radiometric competitive binding assay for the ER (RBA); settings: RBA for estradiol is 100
T1 construct: from tissue; host or cells: rabbit uterus
T1 sequence (G1SML6 1-598): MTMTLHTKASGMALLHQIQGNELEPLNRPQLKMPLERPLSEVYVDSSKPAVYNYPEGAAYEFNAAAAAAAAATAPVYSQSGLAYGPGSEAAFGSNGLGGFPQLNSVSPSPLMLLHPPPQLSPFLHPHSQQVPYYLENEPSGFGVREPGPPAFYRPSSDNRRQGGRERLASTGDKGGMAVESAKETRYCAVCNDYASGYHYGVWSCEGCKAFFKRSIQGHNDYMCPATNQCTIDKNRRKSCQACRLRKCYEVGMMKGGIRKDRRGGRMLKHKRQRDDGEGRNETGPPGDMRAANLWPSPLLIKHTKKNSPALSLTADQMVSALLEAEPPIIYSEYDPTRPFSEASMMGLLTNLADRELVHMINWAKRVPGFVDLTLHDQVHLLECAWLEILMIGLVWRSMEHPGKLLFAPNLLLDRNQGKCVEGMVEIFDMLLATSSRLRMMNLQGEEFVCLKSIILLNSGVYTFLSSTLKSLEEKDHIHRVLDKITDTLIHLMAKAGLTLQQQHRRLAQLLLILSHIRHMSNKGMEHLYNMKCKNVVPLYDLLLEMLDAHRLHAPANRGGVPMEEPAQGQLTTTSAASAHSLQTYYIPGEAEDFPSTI

[5] = molecular target: T2, portion of the ER containing the estradiol binding site (Homo sapiens, UniProt P03372); assay: Electrophoretic gel mobility shift assay of DNA adducts with ER
T2 sequence (P03372 311-547 limits assumed): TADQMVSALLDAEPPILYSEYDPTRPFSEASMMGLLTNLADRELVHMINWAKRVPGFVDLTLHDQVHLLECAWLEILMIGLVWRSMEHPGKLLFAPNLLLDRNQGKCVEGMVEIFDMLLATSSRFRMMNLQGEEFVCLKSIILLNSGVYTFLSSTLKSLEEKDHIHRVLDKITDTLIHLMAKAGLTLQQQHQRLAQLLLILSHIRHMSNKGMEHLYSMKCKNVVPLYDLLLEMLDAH

[6] = test system: MCF-7 (ER+) breast cancer cells; assay: Toxicity toward MCF-7 breast cancer cells; format: cell-based
[7] = test system: MDA-MB231 (ER−) breast cancer cells; format: cell-based
[8] = test system: self complementary octamer deoxyoligonucleotide; assay: Reactivity with DNA (piperidine labile sites); format: biochemical
[9] = pH 7.4

SMILES | relative binding affinity (RBA) for the ER (rabbit uterine ER) | complex formation of covalent DNA adducts with ER [5] | DNA modification, cleaved by piperidine [8] | toxicity [6] | toxicity [7] | logD [9] | also measured
COCCN(CCOC)c1ccc(CCCNC(=O)OCCNCCCCCCC2CC3(C)C(O)CCC3C3CCC4=CC(=O)CCC4=C23)cc1 (stereo not drawn) [11β-dimethoxy] | – | – | – | – | – | – | changes in LNCaP cell shape (LNCaP cells [1]): slight contraction, which was reversed by 24 h; cleavage of PARP (PARP): No cleavage; LNCaP cells in G1 (LNCaP cells [2]; 10 uM for 20 hr, flow cytometry): > 90%; cell cycle arrest (LNCaP cells [2]; LNCaP cells): halt, albeit transiently, the growth of LNCaP cells in the G1 phase of the cell cycle; apoptotic response (LNCaP cells [3]): did not activate an apoptotic response; also recorded: does not induce markers of apoptosis; toxic effect / cell killing (LNCaP cells [3]): transient toxic effect but does not kill cells; levels of p27 (p27 (Kip1)): increased; eventual levels of p21 (p21 (WAF1/Cip1)): recovered to basal levels; initial change in levels of p21 (p21 (WAF1/Cip1)): initially decreased; levels of Skp2 (p45 Skp2): decreased; levels of the c-Myc protein (c-Myc): causes c-Myc levels to drop; effect on p70S6K (p70S6K): inhibits p70S6K
O=C(O)CCCc1ccc(N(CCCl)CCCl)cc1 [Chlorambucil, reference compound] | – | – | – | – | – | – | changes in LNCaP cell shape (LNCaP cells [1]): no effect on cellular shape; DNA fragmentation (LNCaP cells [4]): No changes; cleavage of PARP (PARP; 20 μM, LNCaP cells): No cleavage; Bid cleavage (Bid): No changes; apoptotic response (LNCaP cells [3]; LNCaP cells, single agent): fails to induce apoptosis; levels of p27 (p27 (Kip1); LNCaP cells, 20 μM, up to 15 h): without effect; levels of p21 (p21 (WAF1/Cip1); LNCaP cells, 20 μM, up to 15 h): potent inducer of p21; levels of Skp2 (p45 Skp2; LNCaP cells, 20 μM, up to 15 h): unaffected
CC12CCC3c4ccc(O)cc4CC(CCCCCCNCCOC(=O)NCCCc4ccc(N(CCCl)CCCl)cc4)C3C1CCC2O (stereo not drawn) [Compound 1, 7α-{N-(2-(N-((N,N-bis-2-chloroethylaminophenyl)propyl)-carbamoyloxy)ethyl)aminohexyl}-3,17β-dihydroxyestra-1,3,5(10)-triene] | excellent affinity | – | – | – | – | – | complex formation of covalent DNA adducts with ER ([5]; gel mobility shift, band eliminated by excess estradiol): form complexes; also recorded: greatest affinity for the ER-LBD; differential toxicity MCF-7 (ER+) versus MDA-MB231 (ER−) ([6]; comparison of the two cell lines): significantly more toxic toward MCF-7 cells than MDA-MB231 cells; also recorded: largest differential toxicity
CC12CCC3c4ccc(O)cc4CC(CCCCCCNCCNC(=N)NCCCc4ccc(N(CCCl)CCCl)cc4)C3C1CCC2O (centres unmarked) [Compound 5] | low RBAs | form complexes; also recorded: virtually all of the modified oligonucleotide formed a slowly migrating band | – | – | – | – | toxicity at the highest dose [6]: neither compound showed significant toxicity; toxicity at the highest dose [7]: neither compound showed significant toxicity
CC12CCC3c4ccc(O)cc4CC(CCCCCCNC(=N)NCCCc4ccc(N(CCCl)CCCl)cc4)C3C1CCC2O (centres unmarked) [Compound 7] | comparable affinities | form complexes | – | – | – | – | toxicity at the highest dose [6]: neither compound showed significant toxicity; toxicity at the highest dose [7]: neither compound showed significant toxicity
CC12CCC3c4ccc(O)cc4CC(CCCCCCOC(=O)NCCCc4ccc(N(CCCl)CCCl)cc4)C3C1CCC2O (centres unmarked) [Compound 9] | low RBAs | – | 3% | low toxicity | low toxicity | > 5 | –
O=P(NCCO)(c1ccccc1)c1ccccc1 [Compound 12] | comparable affinities | – | – | low toxicity | low toxicity | high logD values | –
CC(C)(C)[Si](C)(C)OCCNP(=O)(c1ccccc1)c1ccccc1 [Compound 13] | comparable affinities | form complexes | 79% | toxicity similar to that of 1 | toxicity similar to that of 1 | – | differential toxicity MCF-7 (ER+) versus MDA-MB231 (ER−) [6]: greater toxicity toward the ER-positive MCF-7 cells
CC12CCC3c4ccc(O)cc4CC(CCCCCCNC(=O)CCCc4ccc(N(CCCl)CCCl)cc4)C3C1CCC2O (centres unmarked) [Compound 14] | low RBAs | – | 14% | low toxicity | low toxicity | > 5 | –
CC12CCC3c4ccc(O)cc4CC(CCCCCCNCCCCc4ccc(N(CCCl)CCCl)cc4)C3C1CCC2O (centres unmarked) [Compound 15] | 40 | form complexes | – | toxicity similar to that of 1 | toxicity similar to that of 1 | – | differential toxicity MCF-7 (ER+) versus MDA-MB231 (ER−) [6]: greater toxicity toward the ER-positive MCF-7 cells
